Results published in patent US4975434A, “Antiviral and anticancer cyclopentenyl cytosine” (priority 1989, dated 1990).
≈ marks a conversion by molar mass, not a printed value. Where “and” joins values, the source holds several entries; their conditions need not be identical. Identical values can stand only once. Like-named read-outs stand apart in the source and are kept apart here.

Assays:
L1210 leukemia [1] = settings: cited from earlier work; for increase in life span: literature values
[2] = tested on: phosphorylation and deamination; settings: cited from earlier work
CTP synthesase = test: Inhibition of CTP synthesis (CTP synthesase); type: biochemical
[3] = tested on: Yellow Fever virus, strain Asibi; test: microbe, parasite or virus in culture; type: cell-based, Yellow Fever virus; host Vero cells
[4] = tested on: Janapese Encephalitis virus, strain Najayama; test: Antiviral test in vitro, Japanese encephalitis virus; type: cell-based, Japanese encephalitis virus; host Vero cells
[5] = tested on: Punta Toro virus, strain Adames; test: microbe, parasite or virus in culture; type: cell-based, Punta Toro virus; host Vero cells
[6] = tested on: Influenza (Hong Kong), strain A2 /Aichi/2/68; test: microbe, parasite or virus in culture; type: cell-based, Influenza virus; host MDCK (Madin Darby canine kidney cells)
L1210 tumor cells = settings: literature; cited from earlier work
H.Ep.-2 cells = settings: literature; cited from earlier work
adenosine deaminase = settings: literature; cited from earlier work
[7] = tested on: quiescent normal cells; malignant cell lines; settings: subtoxic concentrations; literature; cited from earlier work
[8] = tested on: enzyme which hydrolyzes S-adenosyl-L-homocysteine (AdoHcy); settings: literature; cited from earlier work
cells = settings: literature; cited from earlier work
[9] = tested on: Herpes simplex type 1 (TK+), strain E-377; test: Cytopathogenic inhibition test, HSV-1 TK+; type: cell-based; settings: for IC50: Human alphaherpesvirus 1, inhibition of virus-induced cytopathogenic effects, read-out: ID50 (the source's name); for IC50 / VR (virus rating): Vero cells, strain E-377
[10] = tested on: Herpes simplex type 1 (TK-), strain HF; test: microbe, parasite or virus in culture; type: cell-based
[11] = tested on: Herpes simplex type 2, strain MS; test: Cytopathogenic inhibition test, HSV-2; type: cell-based; settings: Vero cells, strain MS; for IC50: Human alphaherpesvirus 2, inhibition of virus-induced cytopathogenic effects, read-out: ID50 (the source's name)
L1210 leukemia [12] = test: In vivo antitumor test, L1210 leukemia in mice; settings: Table IV, QD1-9, terminated day 60
LOX Melanoma = test: Human tumor xenograft in athymic mice, LOX melanoma (intraperitoneal); settings: for % ILS: Table IV, QD1-9
MX-1 Mammary = test: Human tumor xenograft in athymic mice, MX-1 mammary (subrenal capsule); settings: for % tumor weight inhibition: Table IV, QD1-9, day 0 to day 11
[13] = tested on: Cytomegalovirus, strain AD 169; test: Cytomegalovirus (CMV) Yield Reduction Assay; type: cell-based
[14] = tested on: Varicella-Zoster virus, isolate DM625; test: Varicella-Zoster Virus (VZV) Plaque Reduction Assay; type: cell-based; settings: Human alphaherpesvirus 3, 144 h, Huf cells
[15] = tested on: MRC5 (diploid human embryonic lung cells); test: Toxicity to MRC5 host cells (gross cell morphology) in the CMV assay; settings: 320 μg/ml
[16] = tested on: Vesicular Stomatitis virus, strain Indiana; type: cell-based; settings: L929 cells, strain Indiana; two determinations
[17] = tested on: Herpes simplex type 1 (TK-), strain HF; settings: literature; cited from earlier work
Rhinovirus 1A = settings: literature; cited from earlier work
influenza viruses = settings: literature; cited from earlier work
several DNA viruses = settings: literature; cited from earlier work
two other RNA viruses = settings: literature; cited from earlier work
[18] = tested on: vaccinia virus (IHD strain); type: in vivo, mouse (CD-I); settings: Ara-A 300 mg/kg, QD 1-7 subcutaneous; PBS control 45.8
[19] = tested on: Vaccinia, strain Lederle CA; test: microbe, parasite or virus in culture; type: cell-based
tumors [20] = settings: literature; cited from earlier work
tumors [21] = test: Antitumor activity (general statement)

In the case of `Nc1ccn(C2CC(CO)C(O)C2O)c(=O)n1` (stereo not drawn) ["ara"-analogue], the “increase in life span” value (L1210 leukemia [1]) is given as 104% and the “activity against L1210 leukemia” value (L1210 leukemia [1]; literature, J. Pharm. Chem., 68, 668 (1979)) is given as “activity”.
In the case of `Nc1nccc2c1ncn2[C@@H]1O[C@H](CO)[C@@H](O)[C@H]1O` [3-deazaadenosine], the phosphorylation and deamination ([2]; literature) is given as “resistance towards phosphorylation and deamination”.
In the case of `Nc1ccn([C@@H]2C=C(COP(=O)(O)OP(=O)(O)OP(=O)(O)O)[C@@H](O)[C@H]2O)c(=O)n1` [triphosphate metabolite of CPE-C], the “inhibition of CTP-synthesase” value (CTP synthesase; triphosphate isolated from L1210 cell extracts) is reported as “responsible for the inhibition of CTP-synthesase”.
For `c1c[se]cn1` [Selenazole, reference compound], the “VR (virus rating)” value ([3]; Vero cells, strain Asibi) was 2.4, the IC50 ([3]; Yellow fever virus, Vero, read-out: ID50) was 1.8 µg/mL (≈ 13.6 µM) and the “TI (therapeutic index)” value ([3]; minimum toxic drug concentration / ID50, Vero cells) was 0.6.
For `NC(=O)c1ncn([C@@H]2O[C@H](CO)[C@@H](O)[C@H]2O)n1` [Ribavirin, reference compound], the IC50 ([4]; Japanese encephalitis virus, Vero, read-out: ID50) was 3 µg/mL (≈ 12.3 µM), the “VR (virus rating)” value ([4]; Vero cells, strain Najayama) was 2.4 and the “VR (virus rating)” value [5] was 1.8. For the same compound, the IC50 ([5]; Punta Toro virus, Vero, read-out: ID50) was 20.1 µg/mL (≈ 82.3 µM), the “VR (virus rating)” value [6] was 3.6 and the IC50 ([6]; MDCK, in Canis lupus familiaris, read-out: ID50) was 18.7 µg/mL (≈ 76.6 µM).
In the case of `Nc1ncnc2c1ncn2[C@@H]1C[C@H](CO)[C@@H](O)[C@H]1O` [C-Ado], the “activity in the in vivo mouse L1210 model” value (L1210 leukemia [1]; literature) is given as “inactivity in the in vivo mouse L1210 model system”, the cytotoxicity (L1210 tumor cells) is given as “highly cytotoxic” and the cytotoxicity (H.Ep.-2 cells) is given as “highly cytotoxic”. The “affinity for adenosine deaminase relative to adenosine” value (adenosine deaminase) was “a hundredfold lower”, the “effect on malignant cell lines” value [7] was “inhibited growth” and the “effect on quiescent normal cells” value [7] was “induced cell proliferation”.
In the case of `Nc1ncnc2c1ncn2[C@@H]1C=C(CO)[C@@H](O)[C@H]1O` [Neplanocin A, 9[(1'R,2'S,3'R)-4'-Hydroxymethyl-2',3'dihydroxy-4 cyclopenten-1'-yl]adenine], the “inhibition of AdoHcy hydrolase” value [8] is given as “potent inhibitor”, the “side effects including cytotoxicity” value (cells) is given as “multiplicity of side effects including cytotoxicity” and the phosphorylation and deamination ([2]; literature) is given as “readily phosphorylated”.
With `Nc1nc2c(ncn2COCCO)c(=O)[nH]1` [Acyclovir] the IC50 [9] was 0.7 µg/mL (≈ 3.11 µM), the “VR (virus rating)” value [9] was 6.7 and the antiviral activity ([9]; result in words) was “more active that CPE-C”. The antiviral activity ([10]; result in words) was “inactive”, the IC50 [11] was 5.3 µg/mL (≈ 23.5 µM) and the “VR (virus rating)” value [11] was 4.5.
In the case of `O=C1C=CN([C@@H]2O[C@H](CO)[C@@H](O)[C@H]2O)C(=O)C1` [3-Deazauridine, 3-deazauridine, reference compound], the “inhibition of CTP synthesis” value (CTP synthesase; result in words) is reported as “powerful inhibitors of CTP synthesis”, the “% ILS” value (L1210 leukemia [12]; 3-Deazauridine 25 mg/kg) is reported as 72% and the “% ILS” value (L1210 leukemia [12]; 3-Deazauridine 50 mg/kg) is reported as 61%. For the same compound, the “% ILS” value (L1210 leukemia [12]; 3-Deazauridine 100 mg/kg) was 80%, the “% ILS” value (LOX Melanoma; 3-Deazauridine 200 mg/kg) was 5% and the “% ILS” value (LOX Melanoma; 3-Deazauridine 300 mg/kg) was 4%. The “tumor burden at the end of treatment” value (LOX Melanoma; in vivo) was “three-log10 increase in tumor burden”, the activity (LOX Melanoma; result in words) was “inactive” and the “% tumor weight inhibition” value (MX-1 Mammary; 3-Deazauridine 200 mg/kg) was 11%. For the same compound, the “% tumor weight inhibition” value (MX-1 Mammary; 3-Deazauridine 300 mg/kg) was 64% and the activity (MX-1 Mammary; result in words) was “inactive”.
`Nc1nc2c(ncn2COC(CO)CO)c(=O)[nH]1` [DHPG, 9(1,3-Dihydroxy-2-propoxymethyl)guanine, reference compound] gave a log reduction at 1 µg/mL ([13]; Human betaherpesvirus 5, 144 h, 1.0 μg/ml, MRC5 cells, read-out: Reduction in Virus Yield) of 1.1, a log reduction at 10 µg/mL ([13]; Human betaherpesvirus 5, 144 h, 10 μg/ml, MRC5 cells, read-out: Reduction in Virus Yield) of 3.8 and a log reduction at 32 µg/mL ([13]; Human betaherpesvirus 5, 144 h, 32 μg/ml, MRC5 cells, read-out: Reduction in Virus Yield) of 5.3. For the same compound, the log reduction at 100 µg/mL ([13]; Human betaherpesvirus 5, 144 h, 100 μg/ml, MRC5 cells, read-out: Reduction in Virus Yield) was 5.3, the log reduction at 320 µg/mL ([13]; Human betaherpesvirus 5, 144 h, 320 μg/ml, MRC5 cells, read-out: Reduction in Virus Yield) was 5.3 and the antiviral activity ([13]; result in words) was “superior”. For the same compound, the inhibition at 1 µg/mL ([14]; 1.0 μg/ml) was 44%, the inhibition at 3.2 µg/mL ([14]; 3.2 μg/ml) was 46% and the inhibition at 10 µg/mL ([14]; 10 μg/ml) was 69%. For the same compound, the inhibition at 32 µg/mL ([14]; 32 μg/ml) was 85%, the inhibition at 100 µg/mL ([14]; 100 μg/ml) was 100% and the inhibition at 320 µg/mL ([14]; 320 μg/ml) was 100%. The “Host cell toxicity (gross cell morphology)” value [15] was “Very slightly toxic”.
For `Nc1nccc2c1ncn2[C@@H]1C[C@H](CO)[C@@H](O)[C@H]1O` [3-Deazaaristeromycin, 3-deazaaristeromycin, reference compound], the “VR (virus rating)” value [16] is listed as 2.1 and 3.0, the “inhibition of AdoHcy hydrolase” value [8] is listed as “very potent and specific inhibitor” and the phosphorylation and deamination [2] is listed as “resistance towards phosphorylation and deamination”.
For `Nc1ccn([C@@H]2C[C@H](CO)[C@@H](O)[C@H]2O)c(=O)n1` [Carbodine], the “increase in life span” value (L1210 leukemia [1]) is listed as 82%, the “potency against HSV-1 TK- vs TK+” value [17] is listed as “more potent against a strain of the HSV-1 virus deficient in its ability to induce thymidine kinase” and the antiviral activity (Rhinovirus 1A) is listed as “Slight carbodine activity”. For the same compound, the antiviral activity (influenza viruses) was “very effective”, the antiviral activity (several DNA viruses) was “Good activity” and the antiviral activity (two other RNA viruses) was “Slight carbodine activity”.
For `Nc1ncnc2c1ncn2[C@@H]1O[C@H](CO)[C@@H](O)[C@@H]1O` [Ara-A, arabinosyl adenine, reference compound], the “Pox Count (mean value, 20 mice)” value [18] was 2.8, the IC50 [9] was 13.6 µg/mL (≈ 50.9 µM) and the “VR (virus rating)” value [9] was 1.8. The IC50 ([10]; Human alphaherpesvirus 1, Vero, in Chlorocebus sabaeus, read-out: ID50, Vero cells, strain HF, inhibition of virus-induced cytopathogenic effects, two determinations) was 2.1 µg/mL (≈ 7.86 µM), the “VR (virus rating)” value ([10]; Vero cells, strain HF, two determinations) was 3.3 and 2.9 and the IC50 [11] was 49.9 µg/mL (≈ 187 µM). The “VR (virus rating)” value [11] was 1.3, the IC50 ([19]; Orthopoxvirus vaccinia, Vero, in Chlorocebus sabaeus, read-out: ID50) was 9.8 µg/mL (≈ 36.7 µM) and the “VR (virus rating)” value ([19]; Vero cells, strain Lederle CA) was 3.1.
In the case of `Nc1ccn([C@@H]2O[C@H](CO)[C@@H](O)[C@@H]2O)c(=O)n1` [ara-C, cytosine arabinoside], the “activity against human and animal tumors” value (tumors [20]) is listed as “well-known activity”.
In the case of `Nc1ccn([C@@H]2C=C(CO)[C@@H](O)[C@@H]2O)c(=O)n1`, the antitumor activity (tumors [21]) is reported as “complete lack of antitumor activity”.
